# Results reported in ChEMBL document CHEMBL4732160, “Design and synthesis of 7-O-1,2,3-triazole hesperetin derivatives to relieve inflammation of acute liver injury in mice” (Eur J Med Chem, 2021).
# pIC50: −log10 of the molar value. The source made the active and inactive calls. The calls are words filed in the database; no cut-off is given here.
# Columns and labels:
# RAW264.7 [1] = test: Antiinflammatory activity in mouse RAW264.7 cells assessed as inhibition of LPS-induced TNFalpha production at 10 uM preincubated for 1 hr followed by LPS stimulation and measured after 22 hrs by ELISA; format: functional, cell-based; conditions: time 23.0 hrs
# RAW264.7 [2] = test: Antiinflammatory activity in mouse RAW264.7 cells assessed as inhibition of LPS-induced NO production preincubated for 2 hrs followed by LPS stimulation and measured after 24 hrs by Griess method; format: functional, cell-based
# RAW264.7 [3] = test: Antiinflammatory activity in mouse RAW264.7 cells assessed as inhibition of LPS-induced IL1beta production at 10 uM preincubated for 1 hr followed by LPS stimulation and measured after 22 hrs by ELISA; format: functional, cell-based; conditions: time 23.0 hrs
# RAW264.7 [4] = test: Antiinflammatory activity in mouse RAW264.7 cells assessed as inhibition of LPS-induced NO production at 10 uM preincubated for 2 hrs followed by LPS stimulation and measured after 24 hrs by Griess method relative to control; format: functional; conditions: time 26 hrs
# [5] = Cytotoxicity against mouse RAW264.7 cells assessed as cell viability at 40 uM measured after 24 hrs by MTT assay relative to control; format: cell-based
# RAW264.7 [6] = test: Antiinflammatory activity in mouse RAW264.7 cells assessed as inhibition of LPS-induced IL6 production at 10 uM preincubated for 1 hr followed by LPS stimulation and measured after 22 hrs by ELISA; format: functional, cell-based; conditions: time 23.0 hrs
Structure (SMILES),inhibition (RAW264.7 [1]),pIC50 (RAW264.7 [2]),inhibition (RAW264.7 [3]),inhibition at 10 µM (RAW264.7 [4]) [%],"viability at 24 h, 40 µM [5] [%]",inhibition (RAW264.7 [6])
CCn1cc(COc2cc(O)c3c(c2)O[C@H](c2ccc(OC)c(O)c2)C/C3=N\O)nn1,Active,5.50,Active,65.1,101,Active
C=CCn1cc(COc2cc(O)c3c(c2)O[C@H](c2ccc(OC)c(O)c2)CC3=O)nn1,Active,4.86,Active,50.1,118,Active
CCCCn1cc(COc2cc(O)c3c(c2)O[C@H](c2ccc(OC)c(O)c2)C/C3=N\O)nn1,Active,5.05,Active,56.9,62,Active
COc1ccc([C@@H]2CC(=O)c3c(O)cc(OCc4cn(Cc5ccccc5F)nn4)cc3O2)cc1O,Active,5.14,Active,63.3,74,Active
COc1ccc([C@@H]2CC(=O)c3c(O)cc(OCc4cn(C5CCCC5)nn4)cc3O2)cc1O,Active,4.98,Active,53.8,110,Active
COc1ccc([C@@H]2C/C(=N\O)c3c(O)cc(OCc4cn(Cc5ccccc5F)nn4)cc3O2)cc1O,Active,5.24,Active,65.4,82,Active
COc1ccc([C@@H]2CC(=O)c3c(O)cc(OCc4cn(CC(=O)c5ccccc5F)nn4)cc3O2)cc1O,Active,4.72,Active,34.5,113,Active
COc1ccc([C@@H]2CC(=O)c3c(O)cc(OCc4cn(Cc5ccc(F)cc5)nn4)cc3O2)cc1O,Active,4.82,Active,41.4,101,Active
COc1ccc([C@@H]2CC(=O)c3c(O)cc(OCc4cn(C)nn4)cc3O2)cc1O,Active,4.82,Active,40,105,Active
COc1ccc([C@@H]2CC(=O)c3c(O)cc(OCc4cn(Cc5ccccc5Cl)nn4)cc3O2)cc1O,Active,5.21,Active,63.1,83,Active
COc1ccc([C@@H]2CC(=O)c3c(O)cc(OCc4cn(Cc5ccccc5C)nn4)cc3O2)cc1O,Active,4.88,Active,45.7,100,Active
COc1ccc([C@@H]2CC(=O)c3c(O)cc(OCc4cn(Cc5ccc(C)cc5)nn4)cc3O2)cc1O,Active,4.77,Active,29.4,110,Active
COc1ccc([C@@H]2CC(=O)c3c(O)cc(OCc4cn(Cc5ccc(Cl)cc5)nn4)cc3O2)cc1O,Active,4.75,Active,29,94,Active
CCCCn1cc(COc2cc(O)c3c(c2)O[C@H](c2ccc(OC)c(O)c2)CC3=O)nn1,Active,4.86,Active,49.9,118,Active
CCCn1cc(COc2cc(O)c3c(c2)O[C@H](c2ccc(OC)c(O)c2)CC3=O)nn1,Active,5.01,Active,56.4,114,Active
COc1ccc([C@@H]2CC(=O)c3c(O)cc(OCc4cn(Cc5cccc(C)c5)nn4)cc3O2)cc1O,Active,4.76,Active,31,113,Active
COc1ccc([C@@H]2C/C(=N\O)c3c(O)cc(OCc4cn(C5CCCC5)nn4)cc3O2)cc1O,Active,5.16,Active,63.7,112,Active
COc1ccc([C@@H]2CC(=O)c3c(O)cc(OCc4cn(CC(=O)c5ccccc5OC)nn4)cc3O2)cc1O,Active,4.72,Active,22.8,132,Active
COc1ccc([C@@H]2CC(=O)c3c(O)cc(OCc4cn(CCO)nn4)cc3O2)cc1O,Active,4.75,Active,24.7,112,Active
COc1ccc([C@@H]2C/C(=N\O)c3c(O)cc(OCc4cn(Cc5ccccc5)nn4)cc3O2)cc1O,Active,5.21,Active,63.6,93,Active
COc1ccc([C@@H]2CC(=O)c3c(O)cc(OCc4cn(CC(=O)c5ccccc5)nn4)cc3O2)cc1O,Active,4.77,Active,32.1,112,Active
COc1ccc([C@@H]2CC(=O)c3c(O)cc(OCc4cn(CC(=O)c5ccc(F)cc5)nn4)cc3O2)cc1O,Active,4.81,Active,38.5,64,Active
COc1ccc([C@@H]2CC(=O)c3c(O)cc(OCc4cn(C5CCC5)nn4)cc3O2)cc1O,Active,4.82,Active,44.2,111,Active
COc1ccc([C@@H]2CC(=O)c3c(O)cc(OCc4cn(Cc5ccc(C(F)(F)F)cc5)nn4)cc3O2)cc1O,Active,4.75,Active,36.4,66,Active
COc1ccc([C@@H]2C/C(=N\O)c3c(O)cc(OCc4cn(Cc5ccccc5C)nn4)cc3O2)cc1O,Active,4.74,Active,22.5,83,Active
CCn1cc(COc2cc(O)c3c(c2)O[C@H](c2ccc(OC)c(O)c2)CC3=O)nn1,Active,4.82,Active,41.4,106,Active
